Values after ≈ are worked out from the molar mass of the structure shown. Like-named read-outs stand apart in the source and are kept apart here.
Key:
Format in all cases: cell-based
Streptococcus pyogenes = experiment: MIC by NCCLS broth microdilution, 1100 Japanese clinical isolates 1997-1998; settings: Streptococcus pyogenes (n=51)
Klebsiella pneumoniae = experiment: MIC by NCCLS reference broth microdilution, 450 respiratory tract pathogens; settings: for MIC50 / MIC90: Klebsiella pneumoniae
Streptococcus pneumoniae = experiment: as above; settings: for MIC / MIC50 / MIC90: Streptococcus pneumoniae
Klebsiella oxytoca = experiment: MIC by NCCLS broth microdilution, 1100 Japanese clinical isolates 1997-1998; settings: Klebsiella oxytoca (n=40)
Salmonella spp. = experiment: MIC by agar dilution (NCCLS M7-A4), 288 enteropathogenic isolates, eight quinolones; settings: for MIC: ciprofloxacin MIC ≥[…], read-out: MIC
Shigella spp. = experiment: MIC by NCCLS broth microdilution, 1100 Japanese clinical isolates 1997-1998; settings: Shigella spp. (n=34)
Proteus mirabilis = experiment: as above
Hafnia alvei = experiment: MIC by agar dilution (NCCLS M7-A4), 288 enteropathogenic isolates, eight quinolones; settings: Hafnia alvei (n = 32)
Haemophilus influenzae = experiment: MIC by broth microdilution (NCCLS), dried MicroScan panels, clinical isolates 1998-1999; settings: for MIC90: Haemophilus influenzae
E. coli = experiment: microbe, parasite or virus in culture
[1] = extended spectrum β-lactamase negative (n = 30)
[2] = extended spectrum β-lactamase positive (n = 20)
[3] = Streptococcus pneumoniae (n = 100)
[4] = erythromycin resistant M phenotype (n = 16)
[5] = penicillin intermediate (n = 16)
[6] = penicillin susceptible (n = 20)
[7] = Haemophilus influenzae (300 isolates)

CO/N=C1\CN(c2nc3c(cc2F)c(=O)c(C(=O)O)cn3C2CC2)CC1CN (racemic) [Gemifloxacin, (R,S)-7-(3-aminomethyl-4-methoxyiminopyrrolidin-1-yl)-1-cyclopropyl-6-fluoro-4-oxo-1,4-dihydro-1,8-naphthyridine-3-carboxylic acid]
MIC90 (Streptococcus pyogenes): 0.063 µg/mL (≈ 0.162 µM)
MIC Range (Streptococcus pyogenes): 0.016 to 0.125 µg/mL
MIC50 (Streptococcus pyogenes; read-out: MIC50): 0.032 µg/mL (≈ 0.0822 µM)
MIC Range (Klebsiella pneumoniae; Klebsiella pneumoniae (n = 50)): ≤0.0075 to 1 µg/mL
MIC50 (Klebsiella pneumoniae; Klebsiella pneumoniae (n = 50)): 0.03 µg/mL (≈ 0.077 µM)
MIC90 (Klebsiella pneumoniae; Klebsiella pneumoniae (n = 50)): 0.25 µg/mL (≈ 0.642 µM)
MIC50 (Klebsiella pneumoniae; [1]): 0.015 µg/mL (≈ 0.0385 µM)
MIC90 (Klebsiella pneumoniae; [1]): 0.06 µg/mL (≈ 0.154 µM)
MIC50 (Klebsiella pneumoniae; [2]): 0.25 µg/mL (≈ 0.642 µM)
MIC90 (Klebsiella pneumoniae; [2]): 0.5 µg/mL (≈ 1.28 µM)
MIC Range (Klebsiella pneumoniae; [1]): ≤0.0075 to 0.12 µg/mL
MIC Range (Klebsiella pneumoniae; [2]): 0.03 to 1 µg/mL
times more potent than all comparator agents (Streptococcus pneumoniae; S. pneumoniae): 4-64 times
MIC (Streptococcus pneumoniae; [3]): 0.0075 to 0.03 µg/mL (≈ 0.0193 to 0.077 µM)
MIC50 (Streptococcus pneumoniae; [3]): 0.015 µg/mL (≈ 0.0385 µM)
MIC90 (Streptococcus pneumoniae; [3]): 0.03 µg/mL (≈ 0.077 µM)
MIC (Streptococcus pneumoniae; [4]): 0.015 to 0.05 µg/mL (≈ 0.0385 to 0.128 µM)
MIC50 (Streptococcus pneumoniae; [4]): 0.015 µg/mL (≈ 0.0385 µM)
MIC90 (Streptococcus pneumoniae; [4]): 0.03 µg/mL (≈ 0.077 µM)
MIC (Streptococcus pneumoniae; erythromycin resistant MLSB phenotype (n = 16)): 0.0075 to 0.03 µg/mL (≈ 0.0193 to 0.077 µM)
MIC (Streptococcus pneumoniae; multi-drug resistant (n = 16)): 0.0075 to 0.03 µg/mL (≈ 0.0193 to 0.077 µM)
MIC50 (Streptococcus pneumoniae; multi-drug resistant (n = 16)): 0.015 µg/mL (≈ 0.0385 µM)
MIC90 (Streptococcus pneumoniae; multi-drug resistant (n = 16)): 0.03 µg/mL (≈ 0.077 µM)
MIC (Streptococcus pneumoniae; [5]): 0.0075 to 0.03 µg/mL (≈ 0.0193 to 0.077 µM)
MIC50 (Streptococcus pneumoniae; [5]): 0.015 µg/mL (≈ 0.0385 µM)
MIC90 (Streptococcus pneumoniae; [5]): 0.015 µg/mL (≈ 0.0385 µM)
MIC (Streptococcus pneumoniae; penicillin resistant (n = 18)): 0.0075 to 0.06 µg/mL (≈ 0.0193 to 0.154 µM)
MIC50 (Streptococcus pneumoniae; penicillin resistant (n = 18)): ≤ 0.0075 µg/mL
MIC90 (Streptococcus pneumoniae; penicillin resistant (n = 18)): 0.06 µg/mL (≈ 0.154 µM)
MIC (Streptococcus pneumoniae; [6]): 0.0075 to 0.03 µg/mL (≈ 0.0193 to 0.077 µM)
MIC50 (Streptococcus pneumoniae; [6]): 0.015 µg/mL (≈ 0.0385 µM)
MIC90 (Streptococcus pneumoniae; [6]): 0.03 µg/mL (≈ 0.077 µM)
MIC50 (Klebsiella oxytoca): 0.032 µg/mL (≈ 0.0822 µM)
MIC90 (Klebsiella oxytoca): 4 µg/mL (≈ 10.3 µM)
MIC Range (Klebsiella oxytoca): ≤0.008 to 32 µg/mL
MIC (Salmonella spp.; S. hadar (n = 2)): 0.25 µg/mL (≈ 0.642 µM)
MIC (Salmonella spp.; S. newport (n = 1)): 0.25 µg/mL (≈ 0.642 µM)
MIC (Salmonella spp.; S. virchow (n = 2)): 0.12 µg/mL (≈ 0.308 µM)
% Susceptible (Salmonella spp.; Salmonella spp. (n = 106)): 100%
MIC50 (Salmonella spp.; Salmonella spp. (n = 106)): 0.03 µg/mL (≈ 0.077 µM)
MIC90 (Salmonella spp.; Salmonella spp. (n = 106)): 0.12 µg/mL (≈ 0.308 µM)
MIC Range (Salmonella spp.; Salmonella spp. (n = 106)): ≤0.015 to 0.25 µg/mL
MIC (Salmonella spp.; Salmonella, S. tshiongwe (n = 1)): 0.25 µg/mL (≈ 0.642 µM)
MICs lower than those of the other fluoroquinolones studied (Salmonella spp.; six Salmonella spp. with ciprofloxacin MICs ≥[…]): 1-4 dilutions
MIC50 (Shigella spp.): ≤ 0.008 µg/mL
MIC90 (Shigella spp.): 0.032 µg/mL (≈ 0.0822 µM)
MIC Range (Shigella spp.): ≤0.008 to 0.032 µg/mL
MIC50 (Proteus mirabilis; Proteus mirabilis): 0.125 µg/mL (≈ 0.321 µM)
MIC Range (Proteus mirabilis; Proteus mirabilis (n=30)): 0.063 to 16 µg/mL
MIC90 (Proteus mirabilis; Proteus mirabilis (n=30), read-out: MIC90): 0.25 µg/mL (≈ 0.642 µM)
% Susceptible (Hafnia alvei): 100%
MIC50 (Hafnia alvei): 0.03 µg/mL (≈ 0.077 µM)
MIC90 (Hafnia alvei): 0.03 µg/mL (≈ 0.077 µM)
MIC Range (Hafnia alvei): ≤0.015 to 0.06 µg/mL
activity superior to that of levofloxacin (Haemophilus influenzae; H. influenzae): four-fold
MIC50 (Haemophilus influenzae; [7]): 0.004 µg/mL (≈ 0.0103 µM)
MIC Range (Haemophilus influenzae; [7]): ≤0.0015 to 0.12 µg/mL
MIC90 (Haemophilus influenzae; [7]): 0.008 µg/mL (≈ 0.0205 µM)
MIC90 (Haemophilus influenzae; β-lactamase negative (234)): 0.008 µg/mL (≈ 0.0205 µM)
MIC90 (Haemophilus influenzae; β-lactamase positive (66)): 0.03 µg/mL (≈ 0.077 µM)
MIC90 (E. coli; E. coli (13 strains), quinolone-resistant): 0.25 µg/mL (≈ 0.642 µM)
MIC50 (E. coli; Escherichia coli, E. coli (13 strains), quinolone-resistant, read-out: MIC50): 0.031 µg/mL (≈ 0.0796 µM)
MIC (E. coli; Escherichia coli, E. coli KU1029, mutant type SP (spontaneous mutant in the DNA gyrase)): 0.031 µg/mL (≈ 0.0796 µM)
MIC (E. coli; Escherichia coli, E. coli KU1030, mutant type SP): 0.031 µg/mL (≈ 0.0796 µM)
MIC (E. coli; Escherichia coli, E. coli KU1031, mutant type SP): 0.031 µg/mL (≈ 0.0796 µM)
MIC (E. coli; Escherichia coli, E. coli KU1032, mutant type SP): 0.125 µg/mL (≈ 0.321 µM)
MIC (E. coli; Escherichia coli, E. coli KU1033, mutant type SP): 0.016 µg/mL (≈ 0.0411 µM)
MIC (E. coli; Escherichia coli, E. coli KU1034, mutant type GA (DNA gyrase A)): 0.25 µg/mL (≈ 0.642 µM)
MIC (E. coli; Escherichia coli, E. coli KU1035, mutant type GA (DNA gyrase A)): 0.25 µg/mL (≈ 0.642 µM)

Reference: EP1561465A2, “Methods of use of fluoroquinolone compounds against bacteria” (LG Life Sciences, Ltd., priority 1999, dated 2001)
